Results: patent US8026281B2, “Treating metabolic syndrome with fenofibrate” (Lupin Atlantis Holdings, S.A., priority 2004, dated 2011)
Values belong to the compound of their own block, whether it stands above or below them.

What was measured:
[1] = cited from earlier work
[2] = test system: subjects with hypertriglyceridemia and metabolic syndrome; test: Phase III placebo-controlled study of 130 mg fenofibrate, with and without food: prevalence of metabolic syndrome; details: for prevalence of metabolic syndrome at end of treatment: 130 mg daily
Experimental: Objectives: A primary outcome variable was the difference in the prevalence of metabolic syndrome between the group treated with 130 mg of fenofibrate (“the treatment group”) versus the placebo group (“the placebo”). A related outcome variable included the effect of food on fenofibrate efficacy.
Methodology: This was a multicenter, prospective, double-blind, double-dummy, randomized, placebo-controlled, parallel group study of a micronized formulation of fenofibrate at a single daily dose of 130 mg. Subjects took prescription or over-the-counter lipid lowering medications or dietary supplements known to alter lipid levels or other aspects of the lipid profile until week 6 (visit 1). At week 6, subjects were instructed to follow the therapeutic lifestyle changes diet, in accordance with the Food and Drug Administration guidelines for clinical evaluations of lipid-altering agents.
Also at week 6, qualifying subjects were stratified by triglyceride level and randomized in a double-blind fashion to one of three groups, the first two of which constituted the treatment group and the third group constituted the placebo: A) 1 fenofibrate capsule (130 mg) with food and 1 placebo capsule without food; B) 1 fenofibrate capsule (130 mg) without food (three hours after a meal) and 1 placebo capsule with food; and C) placebo, 1 placebo capsule with food and 1 placebo capsule without food. […] One capsule was taken with the subjects' evening meal and a second capsule was taken three hours post-meal. The first dosing occurred on the first evening after visit 4. A lipid profile was measured at every visit, and other measurements were taken regularly throughout the study.
Treatment duration was eight weeks.

[3] = test system: high-risk patients; details: particularly those with diabetes and insulin resistance; cited from earlier work

SMILES: CC(C)(Oc1ccc(C(=O)c2ccc(Cl)cc2)cc1)C(=O)O [fenofibric acid]
- mean concentration in the plasma ([1]; dose of 300 mg per day): ~15000 ng/mL
- time of maximum concentration in the plasma after ingestion of the medicinal product ([1]; on average): five
- half-life for elimination from the plasma ([1]; plasma): ~20 h

- food effect ([2]; fenofibrate formulation 130 mg, with food versus without food): does not exhibit a food effect
SMILES: CC(C)OC(=O)C(C)(C)Oc1ccc(C(=O)c2ccc(Cl)cc2)cc1 [fenofibrate, 2-[4-(4-chlorobenzoyl)phenoxy]-2-methyl-propanoic acid, 1-methylethyl ester]
- safety and efficacy conclusion ([2]; fenofibrate formulation 130 mg, eight weeks): safe and efficacious
- prevalence of metabolic syndrome at end of treatment ([2]; fenofibrate with food group, eight weeks, reduced from 96.3% prevalence): 74.1%
- prevalence of metabolic syndrome at end of treatment ([2]; fenofibrate without food group (three hours after a meal), eight weeks, reduced from 97.6% prevalence): 66.7%
- decrease in number of subjects having three or more metabolic syndrome criteria ([2]; treatment group (fenofibrate 130 mg once daily, with or without food), eight-week treatment, placebo 12%, chi-square p-value=0.0416): more than 25%
- prevalence of metabolic syndrome at end of treatment ([2]; whole treatment group, eight weeks, reduced from 96.9% prevalence, placebo 98.0% to 86.0%): 70.8%

SMILES: Cc1ccc(C)c(OCCCC(C)(C)C(=O)O)c1 [gemfibrozil]
- risk for major cardiovascular events [3]: reduced the risk for major cardiovascular events
